For eight cell lines, relative viability results are on record in the supplement of paper PMC10307832.

Test in all cases: relative viability (nuclei count vs DMSO), 5 days (fraction); higher = more cells survive
Compound in assay [1]: CC1=CC(=CC=C1)NC2=NC(=CS2)C3=CC=NC=C3 + Nc1nc2[nH]cc(CCc3ccc(C(=O)N[C@@H](CCC(=O)O)C(=O)O)cc3)c2c(=O)[nH]1 [Pemetrexed] (partner 0.2 µM)
Summed up: (§1)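 Relative viability divides the nuclei count in treated wells by that in vehicle wells. Lung cancer cell lines were seeded in 1536-well plates, dosed by pin tool the next day, and fixed and stained after 5 days in one step with final 0.05% Triton X-100, 1% formaldehyde and 1 ug/ml Hoechst. Dosing was a single drug or a fixed anchor-drug dose plus five library-drug doses (not always all listed) in √10 steps, and values are medians of duplicate plates imaged at 4×.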

Compound in the assay “Masitinib + OSI-027”: Cc1ccc(NC(=O)c2ccc(CN3CCN(C)CC3)cc2)cc1Nc1nc(-c2cccnc2)cs1 [Masitinib] + COc1cccc2cc(-c3nc([C@H]4CC[C@H](C(=O)O)CC4)n4ncnc(N)c34)[nH]c12 [OSI-027] (partner 0.5 µM)
Summed up:
as §1

Compound in assay [2]: CC1=CC(=CC=C1)NC2=NC(=CS2)C3=CC=NC=C3 + C[C@@H](Oc1cc(-c2cnn(C3CCNCC3)c2)cnc1N)c1c(Cl)ccc(F)c1Cl [Crizotinib] (partner 1 µM)
Summed up:
as §1

Compound in assay [3]: CC1=CC(=CC=C1)NC2=NC(=CS2)C3=CC=NC=C3 + CCNC(=O)c1noc(-c2cc(C(C)C)c(O)cc2O)c1-c1ccc(CN2CCOCC2)cc1 [Luminespib] (partner 0.01 µM)
Summed up:
as §1

Consider 201T, for which the relative viability in assay [1] (first compound 0.08 µM) was 0.339; in assay [1] (first compound 0.253 µM), 0.293; in assay [1] (first compound 0.8 µM) it was 0.321; in assay [1] (first compound 2.53 µM), 0.301; in assay [1] (first compound 8 µM) it was 0.334; in the assay with Masitinib + OSI-027 (first compound 0.01 µM), 0.792. Besides, the relative viability came to 0.534 with Masitinib + OSI-027 (first compound 0.03162 µM); 0.745 with Masitinib + OSI-027 (first compound 0.1 µM); 0.729 with Masitinib + OSI-027 (first compound 1 µM); 1.01 in assay [2] (first compound 0.08 µM); 0.993 in assay [2] (first compound 0.253 µM); 0.955 in assay [2] (first compound 0.8 µM). Besides, the relative viability amounted to 1.06 in assay [2] (first compound 2.53 µM); 0.869 in assay [2] (first compound 8 µM); 1.08 in assay [3] (first compound 0.08 µM); 0.993 in assay [3] (first compound 0.253 µM); 1 in assay [3] (first compound 0.8 µM); 0.95 in assay [3] (first compound 2.53 µM). The relative viability in assay [3] (first compound 8 µM) stood at 0.849.
Take A549: the relative viability in assay [2] (first compound 0.08 µM) was 0.75; in assay [2] (first compound 0.253 µM), 0.73; in assay [2] (first compound 0.8 µM), 0.776; in assay [2] (first compound 2.53 µM), 0.735; in assay [2] (first compound 8 µM) it was 0.627.
For the cell line A-427, the relative viability in assay [1] (first compound 0.08 µM) is 0.915; in assay [1] (first compound 0.253 µM) it was 1.02; in assay [1] (first compound 0.8 µM), 0.987; in assay [1] (first compound 2.53 µM), 0.899; in assay [1] (first compound 8 µM) it was 0.932; with Masitinib + OSI-027 (first compound 0.03162 µM) it was 0.509. For the same cell line, the relative viability came to 0.531 in the assay with Masitinib + OSI-027 (first compound 0.3162 µM); 0.456 with Masitinib + OSI-027 (first compound 1 µM); 0.851 in assay [2] (first compound 0.08 µM); 0.944 in assay [2] (first compound 0.253 µM); 0.751 in assay [2] (first compound 0.8 µM); 0.692 in assay [2] (first compound 8 µM). The relative viability was determined as 0.738 in assay [3] (first compound 0.08 µM); 0.916 in assay [3] (first compound 0.253 µM); 0.918 in assay [3] (first compound 0.8 µM); 0.729 in assay [3] (first compound 2.53 µM); 0.866 in assay [3] (first compound 8 µM).
With ABC-1, the relative viability with Masitinib + OSI-027 (first compound 0.01 µM) stood at 0.432; with Masitinib + OSI-027 (first compound 0.03162 µM), 0.52; in the assay with Masitinib + OSI-027 (first compound 0.1 µM) it was 0.516; with Masitinib + OSI-027 (first compound 0.3162 µM), 0.334; with Masitinib + OSI-027 (first compound 1 µM), 0.38; in assay [2] (first compound 0.08 µM), 0.851. For the same cell line, the relative viability in assay [2] (first compound 0.253 µM) was 0.893; in assay [2] (first compound 0.8 µM), 1.03; in assay [2] (first compound 2.53 µM) it was 0.934; in assay [2] (first compound 8 µM), 1.19; in assay [3] (first compound 0.08 µM) it was 0.447; in assay [3] (first compound 0.253 µM), 0.766. For the same cell line, the relative viability in assay [3] (first compound 0.8 µM) was determined as 0.492; in assay [3] (first compound 2.53 µM), 0.676; in assay [3] (first compound 8 µM) it was 0.647.
BEN: the relative viability stood at 0.685 in assay [1] (first compound 0.08 µM); 0.841 in assay [1] (first compound 0.253 µM); 0.936 in assay [1] (first compound 0.8 µM); 0.584 in assay [1] (first compound 2.53 µM); 0.682 in assay [1] (first compound 8 µM); 0.306 with Masitinib + OSI-027 (first compound 0.01 µM). Besides, the relative viability in the assay with Masitinib + OSI-027 (first compound 0.1 µM) is 0.325; in the assay with Masitinib + OSI-027 (first compound 0.3162 µM) it was 0.26; in the assay with Masitinib + OSI-027 (first compound 1 µM) it was 0.436; in assay [2] (first compound 0.08 µM), 1.11; in assay [2] (first compound 0.253 µM) it was 0.948; in assay [2] (first compound 0.8 µM), 0.879. Besides, the relative viability came out at 0.779 in assay [2] (first compound 2.53 µM); 0.76 in assay [2] (first compound 8 µM); 0.424 in assay [3] (first compound 0.08 µM); 0.174 in assay [3] (first compound 0.253 µM); 0.488 in assay [3] (first compound 0.8 µM); 0.267 in assay [3] (first compound 2.53 µM). Besides, the relative viability in assay [3] (first compound 8 µM) amounted to 0.356.
Consider CAL-12T, for which the relative viability in assay [1] (first compound 0.08 µM) amounted to 1.19; in assay [1] (first compound 0.253 µM) it was 0.94; in assay [1] (first compound 0.8 µM), 1.15; in assay [1] (first compound 2.53 µM), 1.05; in assay [1] (first compound 8 µM) it was 1.07; with Masitinib + OSI-027 (first compound 0.01 µM) it was 0.682. For the same cell line, the relative viability in the assay with Masitinib + OSI-027 (first compound 0.03162 µM) was determined as 0.554; with Masitinib + OSI-027 (first compound 0.1 µM), 0.705; with Masitinib + OSI-027 (first compound 0.3162 µM), 0.404; with Masitinib + OSI-027 (first compound 1 µM), 0.536; in assay [2] (first compound 0.08 µM), 0.547; in assay [2] (first compound 0.253 µM), 0.634. Besides, the relative viability in assay [2] (first compound 0.8 µM) was found to be 0.612; in assay [2] (first compound 2.53 µM) it was 0.62; in assay [2] (first compound 8 µM) it was 0.604; in assay [3] (first compound 0.08 µM), 0.399; in assay [3] (first compound 0.253 µM), 0.355; in assay [3] (first compound 0.8 µM) it was 0.335. For the same cell line, the relative viability in assay [3] (first compound 2.53 µM) amounted to 0.513; in assay [3] (first compound 8 µM), 0.29.
Regarding COR-L23, the relative viability came to 0.184 in assay [1] (first compound 0.08 µM); 0.194 in assay [1] (first compound 0.253 µM); 0.201 in assay [1] (first compound 0.8 µM); 0.189 in assay [1] (first compound 2.53 µM); 0.184 in assay [1] (first compound 8 µM); 0.893 with Masitinib + OSI-027 (first compound 0.01 µM). Besides, the relative viability came to 0.737 in the assay with Masitinib + OSI-027 (first compound 0.03162 µM); 0.776 with Masitinib + OSI-027 (first compound 0.1 µM); 0.751 with Masitinib + OSI-027 (first compound 0.3162 µM); 0.738 with Masitinib + OSI-027 (first compound 1 µM); 0.553 in assay [2] (first compound 0.08 µM); 0.483 in assay [2] (first compound 0.253 µM). In addition, the relative viability in assay [2] (first compound 0.8 µM) amounted to 0.487; in assay [2] (first compound 2.53 µM), 0.646; in assay [2] (first compound 8 µM), 0.583; in assay [3] (first compound 0.08 µM), 0.603; in assay [3] (first compound 0.253 µM), 0.648; in assay [3] (first compound 0.8 µM) it was 0.564. Moreover, the relative viability in assay [3] (first compound 2.53 µM) turned out to be 0.659; in assay [3] (first compound 8 µM) it was 0.662.
For the cell line COR-L 105, the relative viability in assay [1] (first compound 0.08 µM) turned out to be 1.01; in assay [1] (first compound 0.253 µM) it was 0.903; in assay [1] (first compound 0.8 µM) it was 0.898; in assay [1] (first compound 2.53 µM), 1.02; in assay [1] (first compound 8 µM), 0.797; with Masitinib + OSI-027 (first compound 0.01 µM), 0.682. Further, the relative viability in the assay with Masitinib + OSI-027 (first compound 0.03162 µM) is 0.705; with Masitinib + OSI-027 (first compound 0.1 µM) it was 0.764; with Masitinib + OSI-027 (first compound 0.3162 µM) it was 0.613; with Masitinib + OSI-027 (first compound 1 µM), 0.533; in assay [2] (first compound 0.08 µM), 0.626; in assay [2] (first compound 0.253 µM), 0.604. For the same cell line, the relative viability in assay [2] (first compound 0.8 µM) was determined as 0.634; in assay [2] (first compound 2.53 µM) it was 0.701; in assay [2] (first compound 8 µM), 0.468; in assay [3] (first compound 0.08 µM), 0.727; in assay [3] (first compound 0.253 µM), 0.769; in assay [3] (first compound 0.8 µM) it was 0.755. Further, the relative viability in assay [3] (first compound 2.53 µM) worked out at 0.591; in assay [3] (first compound 8 µM), 0.665.
